Data set [1] is described as follows: Cytotoxicity against HEK cells assessed as cell viability at 0.73 to 1500 ug/mL after 48 hrs by MTT assay. It counts as cell-based. Particulars: human, hek293, 48 h; call rule not given here.
A further data set concerns Raoultella planticola. Put plainly: Antibacterial activity against Klebsiella planticola MTCC 2272 after 16 hrs by microbroth dilution method. It counts as functional, organism-based. A general note: Dilution methods test growth across graded concentrations, often in twofold steps.
The next data set has as its system Shigella flexneri. Put plainly: Antibacterial activity against Shigella flexneri MTCC 1457 after 16 hrs by microbroth dilution method. It counts as functional, organism-based.
Data set [2] relates to Pseudomonas aeruginosa. The data set can be described thus: Antibacterial activity against Pseudomonas aeruginosa MTCC 1688 after 16 hrs by microbroth dilution method. The class given is functional, organism-based.
For a further data set, the system named is Escherichia coli. The data set can be described thus: Antibacterial activity against clinical isolate resistant Escherichia coli after 16 hrs by microbroth dilution method. It counts as functional, organism-based.
The test system of another data set is Proteus vulgaris. The data set can be described thus: Antibacterial activity against clinical isolate resistant Proteus vulgaris after 16 hrs by microbroth dilution method. It counts as functional, organism-based.
Data set [3] relates to Pseudomonas aeruginosa. The data set can be described thus: Antibacterial activity against clinical isolate resistant Pseudomonas aeruginosa after 16 hrs by microbroth dilution method. The class given is functional, organism-based.

The text below walks through data of ChEMBL document CHEMBL1140197, “Synthesis, characterization and antibacterial activity of cobalt(III) complexes with pyridine-amide ligands” (Eur J Med Chem, 2008).

GENTAMICIN [listing 1 of 2 here]: the result in data set [1] was Active.

In the case of GENTAMICIN [listing 2 of 2 here], the MIC (in general, the lowest concentration found to suppress growth) with Raoultella planticola worked out at 1.46 µg/mL; in the data set on Shigella flexneri, 1.46 µg/mL; in the data set with Pseudomonas aeruginosa [2] it was 1.46 µg/mL; against Escherichia coli it was 11 µg/mL; against Proteus vulgaris, 187 µg/mL; with Pseudomonas aeruginosa [3] it was 5.5 µg/mL.
